Data reported in patent US20050221987A1, “Use of certain phospholipids to deliver hormonal effects to plants” (priority 2004, published 2005).
Where “and” joins values, the source holds several entries; their conditions need not be identical. Equal values may be shown once.

Experiments:
[1] = tested on: radish cotyledons; experiment: Radish cotyledon bioassay (kinetin-induced expansion growth and chlorophyll content); type: in vivo, Raphanus sativus L. cv. Cherry-Belle; conditions: for Type of hormone-like activity: radish cotyledon bioassay
Protocol: Radish cotyledon bioassay. The radish cotyledon bioassay was essentially as described by Letham D S (1971) Physiologia Plantarum 25:391-396, which is herein incorporated by reference in its entirety. Seeds of Raphanus sativus L. cv. Cherry-Belle were germinated in darkness at 25° C. for 36 hours in Petri dishes containing filter paper wetted with distilled water. The smaller of the two cotyledons was excised, the fresh weight determined, and 10 cotyledons placed adaxial side down on filter paper in Petri dishes containing potassium phosphate buffer (2 mM, pH 6.0) with kinetin (0.2 mg/L, added to simulate natural growing conditions) and the compounds to be tested at 20 mg/L. Cotyledons were then incubated under continuous illumination up to 72 hours at 25° C. and the increase in fresh weight determined. Chlorophyll content was determined after extraction of tissue into 80% ethanol (containing butylated hydroxytoluene, 10 mg/L) and quantified spectrophotometrically using the equations Chl a=(13.95A663)−(6.88A647) and Chl b=(24.96A652)−(7.32A663) as described by Lichtenthal H K (1987) Methods in Enzymology 148:350-382, which is herein incorporated by reference in its entirety.

[2] = tested on: Hydroponic tomatoes (var. Trust); experiment: Color impact on tomato (greenhouse spray); type: in vivo
Protocol: The color impact of NALPE-2 on tomato. Hydroponic tomatoes (var. Trust) in a commercial greenhouse located in Arena, Wis. were treated with NALPE-2 (50 mg/L) using a hand pump spray bottle. Five tomato clusters each with 3-5 fruit in the early ripening stages (breaker) were used. The clusters were sprayed such that little overspray left the immediate area as to not contaminate other vines. Ambient conditions in the greenhouse at the time of application were about 75° F. and 70% relative humidity, full sun. Drying time was approximately 0.5 hr. Fruit were harvested after 7 days and transported to the laboratory for visual color comparison.

[3] = tested on: radish hypocotyls; experiment: Radish hypocotyl bioassay for anthocyanins; type: in vivo, Raphanus sativus L. cv. Cherry-Belle
Protocol: Radish hypocotyl bioassay for anthocyanins. An anthocyanin bioassay was developed using intact germinated seeds of radish (Raphanus sativus L. cv. Cherry-Belle). Seeds of radish were germinated in darkness at 25° C. for 40 hours in Petri dishes containing filter paper wetted with distilled water. Whole seedlings were transferred to Petri dishes containing the test solutions in potassium phosphate buffer (2 mM, pH 6.0 containing 0.2 mg/L kinetin to simulate natural growing conditions). The seedlings were incubated under bright light for 28 h prior to extraction of hypocotyl tissue and spectrophotometric quantification of anthocyanins. Anthocyanin content was determined spectrophotometrically after tissue extraction into 99 parts ethanol and 1 part concentrated HCl. The absorbance of the acidic ethanol fraction was measured at 510 nm and the final anthocyanin content calculated using an extinction coefficient of 31.76 mmol cm^−1 for raphanisuns (Ishikura N. and Hayashi K. Chromatographic separation and characterization of the component anthocyanins in radish root. Botanical Magazine Tokyo 76:6-13, 1963, which is herein incorporated by reference in its entirety).

[4] = tested on: radish cotyledons; experiment: Radish cotyledon bioassay (kinetin-induced expansion growth and chlorophyll content); type: in vivo, Raphanus sativus L. cv. Cherry-Belle; conditions: kinetin 0.2 mg/l, 72 hours; for Change in fresh weight: n = 9
[5] = tested on: Bolivian Rainbow Peppers; experiment: Color impact on hot pepper (greenhouse); type: in vivo
Protocol: The color impact of NALPE-2 on hot pepper. Potted ornamental peppers (var. Bolivian Rainbow Peppers) in laboratory greenhouses located in Middleton, Wis. were treated with NALPE-2 (50 mg/L). […] 40-50 fruits were tagged and labeled. The pepper color stage was noted prior to application and two plants were used. Ambient conditions in the greenhouse at the time of application were about 80° F. and 70% relative humidity. Drying time was approximately 0.5 hr. After 14 days the peppers were harvested and color group sorting was performed.

[6] = NAPE-2 20 mg/L, kinetin 0.2 mg/l, 72 hours
[7] = NALPE-2 50 mg/L applied 7 days prior to harvest, tomatoes
[8] = NALPE-2 50 mg/L applied 14 days prior to harvest, Bolivian Rainbow Peppers

N-acetylphosphatidylethanolamine [NAPE-2]
Effect on total amount of chlorophyll during radish cotyledon expansion [1]: did not change the total amount of chlorophyll | Change in fresh weight ([1]; NAPE-2 20 mg/L, kinetin 0.2 mg/l, 2 mM PB pH 6.0, 25° C., 72 hours, n = 3): 18.90 ± 1.74 mg and 21.37 ± 1.09 mg and 22.52 ± 3.42 mg | Change in fresh weight, % of control [1, 6]: 110 % of control and 108 % of control | Chlorophyll a/b [1, 6]: 1.82 | Type of hormone-like activity [1]: cytokinin-like activity | Increase of cotyledon fresh weight ([1]; summary of Table 1): about 10%

N-acetyl lysophosphatidylethanolamine [NALPE-2]
Change in fresh weight, % of control ([1]; NALPE-2 20 mg/l, kinetin 0.2 mg/l, 72 hours): 66 % of control | Change in fresh weight ([1]; NALPE-2 20 mg/l, kinetin 0.2 mg/l, 72 hours, n = 9): 9.88 ± 4.93 mg | Effect on expansion growth of radish cotyledons ([1]; Table 2, dependent upon concentration): inhibitory activity | Type of hormone-like activity [1]: ethylene-like activity | Color Stage Light Red [2, 7]: 17% | Color Stage Others (breaker, turning, and pink stage) [2, 7]: 16% | Color Stage Red [2, 7]: 67% | Effect on color development in tomatoes ([2]; text summary of Table 4): accelerated color development | Anthocyanin ([3]; NALPE-2 15 mg/l, kinetin 0.2 mg/l, 25° C., 28 hours, n = 4): 2.637 ± 0.005 μg/hypocotyl | Anthocyanin, % of control ([3]; NALPE-2 15 mg/l, kinetin 0.2 mg/l, 28 hours): 125 % of control | Effect on anthocyanin pigment in radish hypocotyls ([3]; summary of Table 3): enhanced the amount of anthocyanin pigment | Change in fresh weight, % of control ([4]; NALPE-2 0.2 mg/l): 92 % of control | Change in fresh weight ([4]; NALPE-2 0.2 mg/l): 13.68 ± 4.79 mg | Change in fresh weight, % of control ([4]; NALPE-2 200 mg/l): 58 % of control | Change in fresh weight ([4]; NALPE-2 200 mg/l): 8.64 ± 5.46 mg | Color Stage Blue [5, 8]: 22% | Color Stage Orange [5, 8]: 20% | Color Stage Purple [5, 8]: 19% | Color Stage Red [5, 8]: 32% | Color Stage Yellow [5, 8]: 6% | Effect on color development in hot peppers ([5]; Table 5): accelerated color development
